From ChEMBL document CHEMBL3132744, “Structureactivity relationship studies of miniproteins targeting the androgen receptorcoactivator interaction” (Medchemcomm, 2013) come the findings set out here.

One may read the Ki as the dissociation constant of the complex between target and ligand, obtained from inhibition or displacement. High values mean lower affinity, low ones higher affinity.

Square brackets hold non-standard residues; d marks the D form. Peptide text beside a SMILES is read from it. Phe(4-Cl) = N[C@@H](Cc1ccc(Cl)cc1)C(=O)O; Phe(2-Cl) = N[C@@H](Cc1ccccc1Cl)C(=O)O; Cha = N[C@@H](CC1CCCCC1)C(=O)O

In this assay the target is T1, Androgen receptor (Homo sapiens, UniProt P10275).
T1 sequence (P10275 whole entry): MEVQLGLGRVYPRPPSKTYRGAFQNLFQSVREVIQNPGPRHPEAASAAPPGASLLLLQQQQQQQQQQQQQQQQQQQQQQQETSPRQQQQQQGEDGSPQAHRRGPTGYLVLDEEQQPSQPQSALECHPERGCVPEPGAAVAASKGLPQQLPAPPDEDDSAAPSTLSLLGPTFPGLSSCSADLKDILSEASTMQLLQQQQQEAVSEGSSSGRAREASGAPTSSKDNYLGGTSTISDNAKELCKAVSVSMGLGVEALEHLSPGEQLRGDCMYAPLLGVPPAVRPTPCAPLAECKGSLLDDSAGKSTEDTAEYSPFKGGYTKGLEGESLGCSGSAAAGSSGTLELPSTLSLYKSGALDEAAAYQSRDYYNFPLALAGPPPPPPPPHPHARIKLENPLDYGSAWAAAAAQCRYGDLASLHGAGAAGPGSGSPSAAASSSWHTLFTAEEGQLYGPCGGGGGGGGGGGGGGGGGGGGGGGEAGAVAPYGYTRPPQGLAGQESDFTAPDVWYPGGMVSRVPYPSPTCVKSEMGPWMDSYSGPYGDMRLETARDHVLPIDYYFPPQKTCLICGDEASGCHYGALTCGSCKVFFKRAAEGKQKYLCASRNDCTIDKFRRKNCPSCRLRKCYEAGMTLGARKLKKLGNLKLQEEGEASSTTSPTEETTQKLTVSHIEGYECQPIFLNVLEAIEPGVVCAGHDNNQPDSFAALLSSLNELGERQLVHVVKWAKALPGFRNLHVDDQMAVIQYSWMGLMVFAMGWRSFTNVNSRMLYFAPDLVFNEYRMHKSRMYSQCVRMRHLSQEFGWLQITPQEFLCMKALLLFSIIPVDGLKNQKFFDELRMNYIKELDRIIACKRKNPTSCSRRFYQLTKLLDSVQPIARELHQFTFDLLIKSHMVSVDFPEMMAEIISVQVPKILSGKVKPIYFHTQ
Put plainly: Displacement of fluorescein-CSSRFESLFAGEKESR from human androgen receptor-LBD after 1 hr by fluorescence polarization assay.
The compound `CC[C@H](C)[C@H](NC(=O)[C@H](CS)NC(=O)[C@H](Cc1ccccc1)NC(=O)[C@H](CCSC)NC(=O)[C@H](CCC(=O)O)NC(=O)[C@H](CS)NC(=O)[C@H](Cc1ccccc1)NC(=O)[C@H](CCCNC(=N)N)NC(=O)[C@@H](N)CC(N)=O)C(=O)N[C@@H](CCC(N)=O)C(=O)NCC(=O)N[C@H](C(=O)NCC(=O)N[C@@H](CC(=O)O)C(=O)N[C@H](C(=O)N[C@@H](CCCCN)C(=O)N[C@@H](C)C(=O)N[C@@H](CS)C(=O)N[C@@H](CCC(=O)O)C(=O)N[C@@H](Cc1c[nH]c2ccccc12)C(=O)N[C@@H](C)C(=O)N[C@@H](CS)C(=O)N[C@@H](CCC(N)=O)C(=O)O)C(C)C)[C@@H](C)O` (H-NRFCEMFCIQGTGDVKACEWACQ-OH) displayed an inhibition constant (Ki) of 4.1 µM.
The result for `CC[C@H](C)[C@H](NC(=O)[C@H](CS)NC(=O)[C@H](Cc1ccccc1)NC(=O)[C@H](CC(C)C)NC(=O)[C@H](CCCCN)NC(=O)[C@H](CS)NC(=O)[C@H](Cc1ccccc1)NC(=O)[C@H](CCCNC(=N)N)NC(=O)[C@@H](N)CC(N)=O)C(=O)N[C@@H](CCC(N)=O)C(=O)NCC(=O)N[C@H](C(=O)NCC(=O)N[C@@H](CC(=O)O)C(=O)N[C@H](C(=O)N[C@@H](CCCCN)C(=O)N[C@@H](C)C(=O)N[C@@H](CS)C(=O)N[C@@H](CCC(=O)O)C(=O)N[C@@H](Cc1c[nH]c2ccccc12)C(=O)N[C@@H](C)C(=O)N[C@@H](CS)C(=O)N[C@@H](CCC(N)=O)C(=O)O)C(C)C)[C@@H](C)O` (H-NRFCKLFCIQGTGDVKACEWACQ-OH) reads 2.7 µM; that for `CC[C@H](C)[C@H](NC(=O)[C@H](CS)NC(=O)[C@H](CC(C)C)NC(=O)[C@H](CC(C)C)NC(=O)[C@H](CCC(=O)O)NC(=O)[C@H](CS)NC(=O)[C@H](CC(C)C)NC(=O)[C@H](CCCNC(=N)N)NC(=O)[C@@H](N)CC(N)=O)C(=O)N[C@@H](CCC(N)=O)C(=O)NCC(=O)N[C@H](C(=O)NCC(=O)N[C@@H](CC(=O)O)C(=O)N[C@H](C(=O)N[C@@H](CCCCN)C(=O)N[C@@H](C)C(=O)N[C@@H](CS)C(=O)N[C@@H](CCC(=O)O)C(=O)N[C@@H](Cc1c[nH]c2ccccc12)C(=O)N[C@@H](C)C(=O)N[C@@H](CS)C(=O)N[C@@H](CCC(N)=O)C(=O)O)C(C)C)[C@@H](C)O` (H-NRLCELLCIQGTGDVKACEWACQ-OH), 13 µM; that for `CC[C@H](C)[C@H](NC(=O)[C@H](CS)NC(=O)[C@H](Cc1ccccc1)NC(=O)[C@H](CC(C)C)NC(=O)[C@H](CCC(=O)O)NC(=O)[C@H](CS)NC(=O)[C@H](CC1CCCCC1)NC(=O)[C@H](CCCNC(=N)N)NC(=O)[C@@H](N)CC(N)=O)C(=O)N[C@@H](CCC(N)=O)C(=O)NCC(=O)N[C@H](C(=O)NCC(=O)N[C@@H](CC(=O)O)C(=O)N[C@H](C(=O)N[C@@H](CCCCN)C(=O)N[C@@H](C)C(=O)N[C@@H](CS)C(=O)N[C@@H](CCC(=O)O)C(=O)N[C@@H](Cc1c[nH]c2ccccc12)C(=O)N[C@@H](C)C(=O)N[C@@H](CS)C(=O)N[C@@H](CCC(N)=O)C(=O)O)C(C)C)[C@@H](C)O` (H-NR[Cha]CELFCIQGTGDVKACEWACQ-OH), 11 µM.
The result for `CC[C@H](C)[C@H](NC(=O)[C@H](CS)NC(=O)[C@H](Cc1ccccc1)NC(=O)[C@H](CC(C)C)NC(=O)[C@H](CCC(=O)O)NC(=O)[C@H](CS)NC(=O)[C@H](Cc1ccccc1Cl)NC(=O)[C@H](CCCNC(=N)N)NC(=O)[C@@H](N)CC(N)=O)C(=O)N[C@@H](CCC(N)=O)C(=O)NCC(=O)N[C@H](C(=O)NCC(=O)N[C@@H](CC(=O)O)C(=O)N[C@H](C(=O)N[C@@H](CCCCN)C(=O)N[C@@H](C)C(=O)N[C@@H](CS)C(=O)N[C@@H](CCC(=O)O)C(=O)N[C@@H](Cc1c[nH]c2ccccc12)C(=O)N[C@@H](C)C(=O)N[C@@H](CS)C(=O)N[C@@H](CCC(N)=O)C(=O)O)C(C)C)[C@@H](C)O` (H-NR[Phe(2-Cl)]CELFCIQGTGDVKACEWACQ-OH) reads 2.2 µM; that for `CC[C@H](C)[C@H](NC(=O)[C@H](CS)NC(=O)[C@H](Cc1ccccc1)NC(=O)[C@H](CC(C)C)NC(=O)[C@H](CCC(=O)O)NC(=O)[C@H](CS)NC(=O)[C@H](Cc1ccc(Cl)cc1)NC(=O)[C@H](CCCNC(=N)N)NC(=O)[C@@H](N)CC(N)=O)C(=O)N[C@@H](CCC(N)=O)C(=O)NCC(=O)N[C@H](C(=O)NCC(=O)N[C@@H](CC(=O)O)C(=O)N[C@H](C(=O)N[C@@H](CCCCN)C(=O)N[C@@H](C)C(=O)N[C@@H](CS)C(=O)N[C@@H](CCC(=O)O)C(=O)N[C@@H](Cc1c[nH]c2ccccc12)C(=O)N[C@@H](C)C(=O)N[C@@H](CS)C(=O)N[C@@H](CCC(N)=O)C(=O)O)C(C)C)[C@@H](C)O` (H-NR[Phe(4-Cl)]CELFCIQGTGDVKACEWACQ-OH), 2.3 µM.
Turning to `CC[C@H](C)[C@H](NC(=O)[C@H](CS)NC(=O)[C@H](Cc1ccccc1)NC(=O)[C@H](CC(C)C)NC(=O)[C@H](CCC(=O)O)NC(=O)[C@H](CS)NC(=O)[C@H](Cc1ccccc1)NC(=O)[C@H](CCCNC(=N)N)NC(=O)[C@@H](N)CO)C(=O)N[C@@H](CCC(N)=O)C(=O)NCC(=O)N[C@H](C(=O)NCC(=O)N[C@@H](CC(=O)O)C(=O)N[C@H](C(=O)N[C@@H](CCCCN)C(=O)N[C@@H](C)C(=O)N[C@@H](CS)C(=O)N[C@@H](CCC(=O)O)C(=O)N[C@@H](Cc1c[nH]c2ccccc12)C(=O)N[C@@H](C)C(=O)N[C@@H](CS)C(=O)N[C@@H](CCC(N)=O)C(=O)O)C(C)C)[C@@H](C)O` (H-SRFCELFCIQGTGDVKACEWACQ-OH), the affinity corresponds to a Ki of 2.5 µM.
